Reference: patent publication US20240350456A1, “COMPOSITIONS AND METHODS FOR DIAGNOSING AND TREATING INFLAMMATORY CONDITIONS” (RUTGERS, THE STATE UNIVERSITY OF NEW JERSEY, priority 2023, published 2024)

What was measured:
[1] = tested on: ZO-1 (Tjp1) and Ocln; test: Intestinal organoids treated with LPS and metabolites: tight junction (TJ) expression, RT-qPCR and immunostaining; assay type: cell-based, mouse; details: for gene expression of Ocln: ex vivo, in the presence of the barrier disruptor; for TJ expression at the protein and mRNA levels: in the presence of LPS (1 μg/mL), 48 hr
Method: (§1) Intestinal organoids were isolated as previously described (Das et al., 2015; Pearce et al., 2018). Briefly, crypts were isolated from small intestine of conventional house C57BL/6 male mice (Taconic Laboratories, Hudson, NY) by shaking in isolation buffer (2 mM EDTA in PBS), then, crypts were harvested, processed, and suspended in crypt culture medium (CCM), which consisted of advanced DMEM/F12 (Life Technologies, Carlsbad, CA) supplemented with serum-free B27 (1:50; Life Technologies), N2 (1:100; Life Technologies), N-acetylcysteine (1 mM; Sigma-Aldrich, St. Louis, MO), recombinant murine epithelial growth factor (EGF, 50 ng/ml; Peprotech, Rocky Hill, NJ), Noggin (100 ng/ml; Peprotech), R-Spondin (500 ng/ml; Peprotech), Glutamax-I supplement (1:100; Life Technologies), penicillin/streptomycin (500 μg/ml; Life Technologies), and HEPES ([…]; Life Technologies). Crypts were resuspended in 70% Matrigel (density ˜450 crypts per dome, 2 domes per well in 24-well plate) and allowed to solidify at 37° C. for 20 min. CCM (1.5 mL) was then added to each well. Cultures were incubated in a humidified incubator at 37° C., and CCM was changed daily. Intestinal organoid treatment with LPS and metabolites
(§2) We had 2 series of metabolite-treated organoid experiments, i.e., 1) organoid from conventional C57BL6 mice and 2) Ocln KO and littermate WT control as a gift from Prof. Jerrold Turner (Harvard University). […] Seeding is designated as day 0. On day 3 of culture, the existing media in the wells were completely removed before adding treatments. LPS (1 μg/mL) with or without metabolites, i.e., IPA (0.1 mM) (Li et al., 2021), IAM (200 μM) (Vyhlidalova et al., 2020), MNA (12 ng/ml) (Liu et al., 2015), CARN (20 mM) (Boldyrev et al., 2013) or ASA (1 μM) (Erez et al., 2011) were each added in CCM at known physiological concentrations, incubated for 48 hours, thereafter, organoid was harvested for RNA extraction, and paraformaldehyde fixation for immunostaining.
(§3) Total RNA was extracted from the intestinal organoids using a commercially available kit (RNeasy Microkit; Qiagen, MD, Cat. #74004) following manufacturer's instructions. mRNA samples were converted to cDNA using Bio-Rad's iScript Reverse Transcription Supermix for RT-qPCR (Bio-Rad Laboratories, Hercules, CA, Cat. #1708840). cDNA was then used for RT-qPCR (Mx3000P. Stratagene, La Jolla, CA) to analyze several genes using Maxima SYBR Green qPCR Master Mix (Thermo Fisher Scientific, Waltham, MA) and primers (Integrated DNA Technologies, Coralville, IA). Thermal profile for three-step cycling was 10 min at 95° C. for initial denaturation; then 40 cycles of 15 sec at 95° C. for denaturation, 30 sec at 65° C. for annealing, and 30 sec at 75° C. for extension. Primers used are as follows: β-actin (Actb), forward 5′-[…]-3′ (SEQ ID NO: 5), reverse 5′-[…]-3′ (SEQ ID NO: 6); ZO-1 (Tjp1), forward 5′-[…]-3′ (SEQ ID NO: 7), reverse 5′-[…]-3′ (SEQ ID NO: 8), Ocln, forward 5′-[…]-3′ (SEQ ID NO: 9), reverse 5′-[…]-3′ (SEQ ID NO: 10); Lyz1, forward 5′-ATGGCTACCGTGGTGTCAAG-3′ (SEQ ID NO: 11), reverse 5′-CGGTCTCCACGGTTGTAGTT-3′ (SEQ ID NO: 12); Tff3, forward 5′-TAATGCTGTTGGTGGTCCTG-3′ (SEQ ID NO: 13), reverse 5′-CAGCCACGGTTGTTACACTG-3′ (SEQ ID NO: 14). All samples were normalized to β actin expression. Gene expression levels are depicted as fold change relative to the control group.
(§4) Immunocytochemistry followed earlier work (Pearce et al., 2018). Briefly, organoids were extracted from Matrigel by using cell recovery solution (Corning, Cat. No. 354253), processed then fixed in 4% paraformaldehyde for 15 min and dehydrated with 70% ethanol and kept in 4° C. until embedded in paraffin. On the day of embedding, organoids were gently spun down to a pellet (250 g for 5 min), then the supernatant was removed, the pellet resuspended in agarose and embedded in paraffin. […]

[2] = tested on: mouse intestinal organoids; test: Organoid permeability assay with 4 kDa FITC-dextran, LPS with or without metabolites; assay type: cell-based; details: ex vivo organoids
Method: as §1, §2
Permeability assays followed earlier work (Pearce et al., 2018). Briefly, all media were removed and then organoid were incubated with CCM containing 4 kDa FITC-dextran (Sigma-Aldrich, St. Louis, MO, Cat. #46944) at a final concentration of 1.25 µM for 30 minutes at 37° C. and at 5% CO2. […] A fluorescent microscope (Nikon Eclipse TI, NY) at a 10× magnification was used to observe and capture the fluorescence within the lumen of the organoids. Using the same area as the lumen, three different background samples are measured randomly around the lumen. The three background samples measured are averaged and then subtracted from the measured fluorescence of the lumen. […] The quantification of the fluorescence was conducted using the ImageJ 1.53 (NIH, Bethesda, MD).

[3] = tested on: Tff3 and Lyz1 (goblet and Paneth cells); test: Organoids: goblet and Paneth cell transcripts (Tff3, Lyz1) and cell numbers; assay type: cell-based, mouse; details: enteroids
Method: as §2, §3, §4

Compound	gene expression of Ocln [1]	TJ expression at the protein and mRNA levels [1]	disruption of the gut barrier, fluorescence microscopy (FIG. 11M) [2]	goblet and Paneth cell transcripts and cell numbers [3]
NC(=O)Cc1c[nH]c2ccccc12 [Indole-3-acetamide, indole-3-acetamide]	increased gene expression of Ocln	increased TJ expression	prevented disruption of the gut barrier	reduced goblet and Paneth cell transcripts as well as cell numbers
C[n+]1cccc(C(N)=O)c1 [Methylnicotinamide, 1-methynicotinamide]	increased gene expression of Ocln	increased TJ expression	prevented disruption of the gut barrier	reduced goblet and Paneth cell transcripts as well as cell numbers
